Laboratory results from patent US9499493B2, “2,4-pyrimidinediamine compounds and their uses” (Rigel Pharmaceuticals, Inc., priority 2002, dated 2016).

Columns and labels:
[1] = tested on: cultured human mast cells (CHMC); test: CHMC low cell density IgE activation: tryptase assay; type: cell-based; conditions: anti-IgE
In short: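 Degranulation is read as supernatant tryptase activity, using tryptase substrate incubated 30 min at room temperature. Before this, CHMC at low density (1000-1500 cells/well) rest 1 hr at 37° C and are triggered with anti-IgE for 30 min at 37° C.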

[2] = tested on: cultured human mast cells (CHMC); test: CHMC low cell density ionomycin activation: tryptase assay; type: cell-based

| Compound | IC50 [1] [nM] | IC50 [2] [nM] |
| --- | --- | --- |
| CNC(=O)COc1cccc(Nc2ncc(F)c(Nc3cc(C)ccc3Cl)n2)c1 [R926840, N4-(2-Chloro-5-methylphenyl)-5-fluoro-N2-[3-(N-methylamino)carbonylmethyleneoxyphenyl]-2,4-pyrimidinediamine] | 1100 | > 10000 |
| Oc1cccc(Nc2nc(Nc3ccc(C(F)(F)F)c(Cl)c3)ncc2F)c1 [R926844, N2-(3-Chloro-4-trifluoromethylphenyl)-5-fluoro-N4-(3-hydroxyphenyl)-2,4-pyrimidinedimine] | 1100 | > 10000 |
| NC(=O)Cn1c(=O)oc2ccc(Nc3ncc(F)c(Nc4ccc5c(c4)OCCO5)n3)cc21 [R926847, N2-[5-(N-Aminocarbonylmethylene-2-oxo-1,3-oxazol-3(2H)-yl)phenyl]-N4-(3,4-ethylenedioxyphenyl)-5-fluoro-2,4-pyrimidinediamine] | 1480 | 6260 |
| CNC(=O)COc1cccc(Nc2ncc(F)c(Nc3cccc(-c4nnn[nH]4)c3)n2)c1 [R926855, 5-Fluoro-N2-[3-(N-methylamino)carbonylmethyleneoxyphenyl]-N4-[3-(tetrazol-5-yl)phenyl]-2,4-pyrimidinediamine] | > 10000 | > 10000 |
| CNC(=O)COc1cccc(Nc2ncc(F)c(Nc3ccc(Cl)c(-c4nc5ccccc5s4)c3)n2)c1 [R926900, N4-[3-(Benzothiazol-2-yl)-4-chlorophenyl]-5-fluoro-N2-[3-[(N-methylamino)carbonylmethyleneoxy]phenyl)-2,4-pyrimidinediamine] | > 10000 | > 10000 |
| CNC(=O)COc1cccc(Nc2ncc(F)c(Nc3ccc(C)c(OC)c3)n2)c1 [R926902, 5-Fluoro-N2-[3-[(N-methylamino)carbonylmethyleneoxy]phenyl]-N4-(3-methoxy-4-methylphenyl)-2,4-pyrimidinediamine] | 1370 | 4590 |
| CNC(=O)COc1cccc(Nc2ncc(F)c(Nc3ccc4c(c3)CNCC4)n2)c1 [R926914, 5-Fluoro-N4-(1,2,3,4-tetrahydroisoquin-7-yl)-N2-[3-[(N-methylamino)carbonylmethyleneoxy]phenyl]-2,4-pyrimidinediamine] | 1860 | > 10000 |
| CNC(=O)C(C)(C)Oc1cccc(Nc2ncc(F)c(Nc3ccc4c(c3)OCCO4)n2)c1 [R926915, N4-(3,4-Ethylenedioxyphenyl)-5-fluoro-N2-[3-[(N-methylamino)carbonyl-1,1-dimethylmethyleneoxy]phenyl]-2,4-pyrimidinediamine] | 1710 | > 10000 |
| CNC(=O)COc1cccc(Nc2ncc(F)c(Nc3cccc(OC(=O)N(C(=O)NC(C)C)C(C)C)c3)n2)c1 [R926916] | 1960 | > 10000 |
| C=CCNC(=O)Oc1cccc(Nc2nc(Nc3cccc(OCC(=O)NC)c3)ncc2F)c1 [R926917, 5-Fluoro-N4-[3-[(N-allylamino)carbonyloxy]phenyl]-N2-[3-[(N-methylamino)carbonylmethyleneoxy]phenyl]-2,4-pyrimidinediamine] | 1170 | > 10000 |
| CCOC(=O)CNC(=O)Oc1cccc(Nc2nc(Nc3cccc(OCC(=O)NC)c3)ncc2F)c1 [R926918, N4-[3-[[N-(Ethoxycarbonylmethyl)amino]carbonyloxy]phenyl]-5-fluoro-N2-[3-[(N-methylamino)carbonylmethyleneoxy]phenyl]-2,4-pyrimidinediamine] | 2520 | > 10000 |
| CCNC(=O)Oc1cccc(Nc2nc(Nc3cccc(OCC(=O)NC)c3)ncc2F)c1 [R926919] | 1410 | > 10000 |
| CNC(=O)COc1cc(O)cc(Nc2ncc(F)c(Nc3cccc(O)c3)n2)c1 [R926929, 5-Fluoro-N2-[3-hydroxy-5-[(N-methylamino)carbonylmethyleneoxy]phenyl]-N4-(3-hydroxyphenyl)-2,4-pyrimidinediamine] | 1920 | > 10000 |
| Cc1ccc(-c2ccccc2)cc1Nc1ncc(C)c(Nc2cc(-c3ccccc3)ccc2C)n1 [R935001, N2,N4-Bis[(2-methyl-5-phenyl)phenyl]-5-methyl-2,4-pyrimidinediamine] | > 10000 | > 10000 |
| COc1ccc(Nc2ncc(C)c(Nc3ccc(OC)c(-c4ccccc4)c3)n2)cc1-c1ccccc1 [R935002, N2,N4-Bis[(4-methoxy-3-phenyl)phenyl]-5-methyl-2,4-pyrimidinediamine] | > 10000 | > 10000 |
| COc1cc(-c2ccccc2)c(C)cc1Nc1ncc(C)c(Nc2cc(C)c(-c3ccccc3)cc2OC)n1 [R935003, N2,N4-Bis[(4-phenyl-2-methoxy-5-methyl)phenyl]-5-methyl-2,4-pyrimidinediamine] | > 10000 | > 10000 |
| COc1ccc([C@@H](C)Nc2ncc(Br)c(N[C@H](C)c3ccc(OC)cc3)n2)cc1 [R935016, N2,N4-Bis[1(R)-4-methoxyphenylethyl]-5-bromo-2,4-pyrimidineamine] | > 10000 | > 10000 |
| CC(C)Oc1ccc(Nc2nc(Nc3ccc(OCc4nc(-c5ccccc5)no4)cc3)ncc2F)cc1 [R935135, 5-Fluoro-N4-(4-isopropoxyphenyl)-N2-[4-(3-phenyl-1,2,4-oxadiazol-5-yl)methyleneoxyphenyl]-2,4-pyrimidinediamine] | 10000 | > 10000 |
| COC(=O)c1cc2cc(Nc3nc(Nc4ccc(OCc5nc(-c6ccccc6)no5)cc4)ncc3F)ccc2o1 [R935137, 5-Fluoro-N4-(2-methoxycarbonylbenzofura-5-yl)-N2-[4-(3-phenyl-1,2,4-oxadiazol-5-yl)methyleneoxyphenyl]-2,4-pyrimidinediamine] | 10000 | > 10000 |

Compounds with a lower IC50 [1], results first:

| IC50 [1] [nM] | IC50 [2] [nM] | Compound |
| --- | --- | --- |
| 583 | > 10000 | CNC(=O)COc1cccc(Nc2ncc(F)c(Nc3ccc(F)c(C(F)(F)F)c3)n2)c1 [R926838, 5-Fluoro-N4-(4-fluoro-3-trifluoromethylphenyl)-N2-[3-(N-methylamino)carbonylmethyleneoxyphenyl]-2,4-pyrimidinediamine] |
| 161 | > 10000 | CNC(=O)COc1cccc(Nc2ncc(F)c(Nc3ccc(C)c(Cl)c3)n2)c1 [R926839, N4-(3-Chloro-4-methylphenyl)-5-fluoro-N2-[3-(N-methylamino)carbonylmethyleneoxyphenyl]-2,4-pyrimidinediamine] |
| 860 | 6260 | Oc1cccc(Nc2nc(Nc3cc(Br)cc(C(F)(F)F)c3)ncc2F)c1 [R926846, N2-(3-Bromo-5-trifluorophenyl)-5-fluoro-N4-(3-hydroxyphenyl)-2,4-pyrimidinediamine] |
| 774 | > 10000 | CNC(=O)COc1cccc(Nc2ncc(F)c(Nc3cc(C(=O)OC)cc(C(F)(F)F)c3)n2)c1 [R926862, 5-Fluoro-N2-[3-(N-methylamino)carbonylmethyleneoxyphenyl]-N4-(3-methoxycarbonyl-5-trifluoromethylphenyl)-2,4-pyrimidinediamine] |
| 638 | > 10000 | CCOC(=O)Cc1nnc(-c2cccc(Nc3ncc(F)c(Nc4cccc(O)c4)n3)c2)o1 [R926874] |
| 397 | > 10000 | CNC(=O)COc1cccc(Nc2ncc(F)c(Nc3ccc(OC(F)(F)F)cc3)n2)c1 [R926879, 5-Fluoro-N2-[3-(N-methylamino)carbonylmethyleneoxyphenyl]-N4-[4-trifluoromethoxyphenyl]-2,4-pyrimidinediamine] |
| 243 | > 10000 | COC(=O)c1cc2ccc(Nc3ncc(F)c(Nc4cccc(O)c4)n3)cc2[nH]1 [R926903] |
| 305 | > 10000 | CNC(=O)COc1cccc(Nc2ncc(F)c(Nc3ccc(C)c(C(F)(F)F)c3)n2)c1 [R926922, 5-Fluoro-N2-[3-[(N-methylamino)carbonylmethyleneoxy]phenyl]-N4-(4-methyl-3-trifluoromethylphenyl)-2,4-pyrimidinediamine] |
| 346 | > 10000 | CNC(=O)COc1cccc(Nc2ncc(F)c(Nc3ccc(F)c(C)c3)n2)c1 [R926923, 5-Fluoro-N4-(4-fluoro-3-methylphenyl)-N2-[3-[(N-methylamino)carbonylmethyleneoxy]phenyl]-2,4-pyrimidinediamine] |
| 401 | > 10000 | COC(=O)COc1cc(Nc2ncc(F)c(Nc3cccc(O)c3)n2)cc(OCC(=O)OC)c1 [R926926, N2-[3,5-Bis(methoxycarbonylmethyleneoxy)phenyl]-5-fluoro-N4-(3-hydroxyphenyl)-2,4-pyrimidinediamine] |
| 348 | > 10000 | COC(=O)COc1cc(O)cc(Nc2ncc(F)c(Nc3cccc(O)c3)n2)c1 [R926927, 5-Fluoro-N2-[3-hydroxy-5-(methoxycarbonylmethyleneoxy)phenyl]-N4-(3-hydroxyphenyl)-2,4-pyrimidinediamine] |
| 909 | 1800 | Oc1cccc(Nc2nc(Nc3ccc(OCc4nc(-c5ccccc5)no4)cc3)ncc2F)c1 [R935134, 5-Fluoro-N4-(3-hydroxyphenyl)-N2-[4-(3-phenyl-1,2,4-oxadiazol-5-yl)methyleneoxyphenyl]-2,4-pyrimidinediamine] |
| 952 | 2130 | Fc1cnc(Nc2ccc(OCc3nc(-c4ccccc4)no3)cc2)nc1Nc1ccc2c(c1)OCCO2 [R935136, N4-(3,4-Ethylenedioxyphenyl)-5-fluoro-N2-[4-(3-phenyl-1,2,4-oxadiazol-5-yl)methyleneoxyphenyl]-2,4-pyrimidinediamine] |
| 846 | > 10000 | CC(C)Oc1ccc(Nc2ncc(F)c(Nc3ccc(OCc4nc(-c5ccccc5)no4)cc3)n2)cc1 [R935139, 5-Fluoro-N2-(4-isopropoxyphenyl)-N4-[4-(3-phenyl-1,2,4-oxadiazol-5-yl)methyleneoxyphenyl]-2,4-pyrimidinediamine] |
| 275 | 959 | Fc1cnc(Nc2ccc3c(c2)OCCO3)nc1Nc1ccc(OCc2nc(-c3ccccc3)no2)cc1 [R935140, N2-(3,4-Ethylenedioxyphenyl)-5-fluoro-N4-[4-(3-phenyl-1,2,4-oxadiazol-5-yl)methyleneoxyphenyl]-2,4-pyrimidinediamine] |
